Source: US20250302832A1, “PYRAZINE DERIVATIVES AND USES THEREOF” (FOGHORN THERAPEUTICS INC., priority 2022, published 2025)

Key:
[1] = target: T1, HiBit-BRG1 fusion protein (Homo sapiens, UniProt P51532); assay: HiBiT-BRG1 cell-based degradation assay (Nano-Glo HiBiT lytic detection, 24 h); conditions: HeLa cell line expressing HiBit-BRG1 and LgBit; for Dmax: read-out: BRG1 HiBit Degradation Maximum (%); for DC50: read-out: BRMG1 HiBit Degradation IC50
T1 construct: expressed in transfected cells
T1 sequence (P51532 whole entry, the tested form may be a part): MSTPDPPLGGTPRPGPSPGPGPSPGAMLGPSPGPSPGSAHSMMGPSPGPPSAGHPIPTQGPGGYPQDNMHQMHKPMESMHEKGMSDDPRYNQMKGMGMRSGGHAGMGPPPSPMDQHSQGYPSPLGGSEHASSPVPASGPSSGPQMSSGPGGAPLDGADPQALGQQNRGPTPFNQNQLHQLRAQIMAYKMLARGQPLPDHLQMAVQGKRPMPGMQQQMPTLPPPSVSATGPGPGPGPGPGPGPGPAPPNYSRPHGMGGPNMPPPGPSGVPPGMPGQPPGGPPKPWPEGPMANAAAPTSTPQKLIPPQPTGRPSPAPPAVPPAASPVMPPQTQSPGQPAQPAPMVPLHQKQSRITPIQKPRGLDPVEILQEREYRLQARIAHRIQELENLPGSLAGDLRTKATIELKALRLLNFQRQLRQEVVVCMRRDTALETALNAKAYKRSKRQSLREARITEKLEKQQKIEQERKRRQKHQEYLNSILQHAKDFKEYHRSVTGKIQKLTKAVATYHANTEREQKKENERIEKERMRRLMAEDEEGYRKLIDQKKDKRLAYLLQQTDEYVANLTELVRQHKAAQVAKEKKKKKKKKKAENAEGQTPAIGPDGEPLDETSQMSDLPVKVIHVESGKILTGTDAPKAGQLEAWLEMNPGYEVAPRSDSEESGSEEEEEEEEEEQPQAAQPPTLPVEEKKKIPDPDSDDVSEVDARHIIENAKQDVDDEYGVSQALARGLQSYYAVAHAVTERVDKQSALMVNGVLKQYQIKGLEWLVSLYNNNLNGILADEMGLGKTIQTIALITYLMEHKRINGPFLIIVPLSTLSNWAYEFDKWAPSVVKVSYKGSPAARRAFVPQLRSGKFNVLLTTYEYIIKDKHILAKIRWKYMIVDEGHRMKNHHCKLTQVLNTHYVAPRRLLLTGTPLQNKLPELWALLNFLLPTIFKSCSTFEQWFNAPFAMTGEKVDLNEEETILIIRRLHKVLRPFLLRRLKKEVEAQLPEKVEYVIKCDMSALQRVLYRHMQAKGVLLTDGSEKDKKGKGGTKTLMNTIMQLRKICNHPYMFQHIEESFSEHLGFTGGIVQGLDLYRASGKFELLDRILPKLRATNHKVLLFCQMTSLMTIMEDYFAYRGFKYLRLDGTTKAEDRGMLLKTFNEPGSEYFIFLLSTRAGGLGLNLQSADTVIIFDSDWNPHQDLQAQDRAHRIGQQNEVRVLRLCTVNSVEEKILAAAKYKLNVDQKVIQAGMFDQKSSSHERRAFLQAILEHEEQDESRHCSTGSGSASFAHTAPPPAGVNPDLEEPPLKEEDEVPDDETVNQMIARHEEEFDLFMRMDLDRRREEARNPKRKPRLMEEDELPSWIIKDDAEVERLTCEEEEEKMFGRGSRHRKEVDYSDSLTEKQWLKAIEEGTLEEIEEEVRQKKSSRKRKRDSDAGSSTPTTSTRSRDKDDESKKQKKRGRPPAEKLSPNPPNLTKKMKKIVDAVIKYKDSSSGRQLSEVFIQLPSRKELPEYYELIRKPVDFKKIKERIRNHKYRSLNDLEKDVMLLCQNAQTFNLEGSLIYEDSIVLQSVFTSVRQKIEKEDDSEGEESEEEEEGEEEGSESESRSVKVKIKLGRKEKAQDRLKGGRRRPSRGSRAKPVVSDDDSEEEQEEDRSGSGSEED
Experimental: Procedure: A stable HeLa cell line expressing HiBiT-BRM was generated. On day 0, 5000 cells were seeded in 40 μL of media into each well of 384-well cell culture plates. […] Subsequently plates were incubated for 24 h in a standard tissue culture incubator and equilibrated at room temperature for 15 minutes. Nano-GB HiBiT Lytic Detection System (Promega N3050) reagent was freshly prepared and 20 ul was added to each well. Upon addition of this LgBit-containing reagent, the HiBiT and LgBiT proteins associate to form the luminescent NanoBiT luciferase. The plates were shaken for 10 minutes at room temperature and the bioluminescence read using an EnVision plate reader (PerkinElmer).
For measurement of BRG1 degradation, a stable HeLa cell line expressing HiBit-BRG1 and LgBit was generated. The same protocol as above was then followed.
(§1) The degradation % was calculated using the following formula: % degradation=100%−100%×(Lumsample−LuMLC)/(LuMHC−LuMLC). DMSO treated cells are employed as High Control (HC) and 2 μM of a known BRM/BRG1 degrader standard treated cells are employed as Low Control (LC).

HiBit-BRM fusion protein = target: T2, HiBit-BRM fusion protein (Homo sapiens, UniProt P51531); assay: HiBiT-BRM cell-based degradation assay (Nano-Glo HiBiT lytic detection, 24 h); conditions: HeLa cell line expressing HiBiT-BRM; for DC50: read-out: BRM HiBit Degradation IC50
T2 construct: expressed in transfected cells
T2 sequence (P51531 whole entry, the tested form may be a part): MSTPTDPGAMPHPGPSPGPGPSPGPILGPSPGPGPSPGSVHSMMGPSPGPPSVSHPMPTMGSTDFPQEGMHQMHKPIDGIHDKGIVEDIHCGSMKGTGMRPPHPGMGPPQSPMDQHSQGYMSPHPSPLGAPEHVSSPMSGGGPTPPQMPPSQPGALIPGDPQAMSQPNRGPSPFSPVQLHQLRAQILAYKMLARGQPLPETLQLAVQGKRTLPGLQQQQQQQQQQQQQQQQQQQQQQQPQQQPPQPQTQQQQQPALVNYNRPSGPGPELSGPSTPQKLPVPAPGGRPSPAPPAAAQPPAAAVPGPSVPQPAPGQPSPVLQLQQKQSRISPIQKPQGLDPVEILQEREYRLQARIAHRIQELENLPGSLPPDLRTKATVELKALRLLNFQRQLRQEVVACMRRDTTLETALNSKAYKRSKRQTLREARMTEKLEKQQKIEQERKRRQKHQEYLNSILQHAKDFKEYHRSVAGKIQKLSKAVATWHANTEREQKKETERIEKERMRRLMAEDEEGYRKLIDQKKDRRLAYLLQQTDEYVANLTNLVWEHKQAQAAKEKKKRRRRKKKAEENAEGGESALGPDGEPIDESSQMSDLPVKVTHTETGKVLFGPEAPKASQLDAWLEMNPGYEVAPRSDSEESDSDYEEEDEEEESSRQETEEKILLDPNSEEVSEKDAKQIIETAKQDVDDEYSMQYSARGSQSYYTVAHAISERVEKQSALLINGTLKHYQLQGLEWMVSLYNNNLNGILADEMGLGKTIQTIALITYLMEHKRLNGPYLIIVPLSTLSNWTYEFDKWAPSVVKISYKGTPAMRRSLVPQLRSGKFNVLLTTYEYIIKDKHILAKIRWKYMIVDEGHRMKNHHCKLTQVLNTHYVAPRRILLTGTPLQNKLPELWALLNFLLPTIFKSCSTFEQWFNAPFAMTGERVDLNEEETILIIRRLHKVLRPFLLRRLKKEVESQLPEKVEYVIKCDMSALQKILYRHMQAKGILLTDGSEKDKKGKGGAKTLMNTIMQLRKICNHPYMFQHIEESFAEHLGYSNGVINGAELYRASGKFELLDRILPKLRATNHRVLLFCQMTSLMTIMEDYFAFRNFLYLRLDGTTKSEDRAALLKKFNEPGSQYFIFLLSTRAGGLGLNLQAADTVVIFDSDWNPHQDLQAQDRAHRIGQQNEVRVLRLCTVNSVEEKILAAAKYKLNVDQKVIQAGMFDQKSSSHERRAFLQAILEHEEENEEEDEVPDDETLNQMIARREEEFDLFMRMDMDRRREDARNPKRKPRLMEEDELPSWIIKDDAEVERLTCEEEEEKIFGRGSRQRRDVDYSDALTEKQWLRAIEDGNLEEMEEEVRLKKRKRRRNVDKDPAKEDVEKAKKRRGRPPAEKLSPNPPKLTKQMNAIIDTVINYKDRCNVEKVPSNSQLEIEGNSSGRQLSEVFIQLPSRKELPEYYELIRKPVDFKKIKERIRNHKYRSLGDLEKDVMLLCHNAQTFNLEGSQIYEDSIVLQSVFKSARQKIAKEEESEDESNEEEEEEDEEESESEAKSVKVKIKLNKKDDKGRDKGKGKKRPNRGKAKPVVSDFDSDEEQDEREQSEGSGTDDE
Experimental: Procedure: A stable HeLa cell line expressing HiBiT-BRM was generated. On day 0, 5000 cells were seeded in 40 μL of media into each well of 384-well cell culture plates. On day 1, cells were treated with 120 nL DMSO or 120 nL of 3-fold serially DMSO-diluted compounds (10 points in duplicate with 30 μM as final top dose). Subsequently plates were incubated for 24 h in a standard tissue culture incubator and equilibrated at room temperature for 15 minutes. Nano-GB HiBiT Lytic Detection System (Promega N3050) reagent was freshly prepared and 20 ul was added to each well. Upon addition of this LgBit-containing reagent, the HiBiT and LgBiT proteins associate to form the luminescent NanoBiT luciferase. The plates were shaken for 10 minutes at room temperature and the bioluminescence read using an EnVision plate reader (PerkinElmer).
as §1

Row | Dmax [1] | DC50 (HiBit-BRM fusion protein) | DC50 [1] | SMILES | BRM HiBit Degradation Maximum (%) (HiBit-BRM fusion protein)
1 | < 50% | > 10 nM |  | Cc1ncsc1-c1ccc([C@H](C)NC(=O)[C@@H]2C[C@@H](O)CN2C(=O)[C@@H](c2cc(-c3cc(N4CC[C@@H](c5cc6nnc(-c7ccccc7O)cc6n5C5CC5)C4)ccn3)no2)C(C)C)cc1 (single isomer, unassigned) [Compound 91] | A (“A” indicates maximum degradation ≥75%)
2 | < 50% | < 10 nM |  | Cc1cc(-c2cc([C@H](C(=O)N3C[C@H](O)C[C@H]3C(=O)N[C@@H](C)c3ccc(-c4scnc4C)cc3)C(C)C)on2)cnc1N1CC[C@H](c2cc3nnc(-c4ccccc4O)cc3n2C2CC2)C1 (single isomer, unassigned) [Compound 110] | A (“A” indicates maximum degradation ≥75%)
3 | > 75% | > 10 nM | > 100 nM | Cc1ncsc1-c1ccc([C@H](C)NC(=O)[C@@H]2C[C@@H](O)CN2C(=O)[C@@H](c2cc(OCCN3CC(c4cc5nnc(-c6ccccc6O)cc5[nH]4)C3)no2)C(C)C)cc1 [Compound 1, (2S,4R)-4-hydroxy-1-[(2R)-2-[3-(2-{3-[3-(2-hydroxyphenyl)-5H-pyrrolo[3,2-c]pyridazin-6-yl]azetidin-1-yl}ethoxy)-1,2-oxazol-5-yl]-3-methylbutanoyl]-N-[(1S)-1-[4-(4-methyl-1,3-thiazol-5-yl)phenyl]ethyl]pyrrolidine-2-carboxamide] | A (“A” indicates maximum degradation ≥75%)
4 | < 50% | > 100 nM |  | Cc1ncsc1-c1ccc([C@H](C)NC(=O)[C@@H]2C[C@@H](O)CN2C(=O)[C@@H](c2cc(N(C)CCN3CC(c4cc5nnc(-c6ccccc6O)cc5[nH]4)C3)no2)C(C)C)cc1 [Compound 2, (2S,4R)-4-hydroxy-1-((R)-2-(3-((2-(3-(3-(2-hydroxyphenyl)-5H-pyrrolo[3,2-c]pyridazin-6-yl)azetidin-1-yl)ethyl)(methyl)amino)isoxazol-5-yl)-3-methylbutanoyl)-N-((S)-1-(4-(4-methylthiazol-5-yl)phenyl)ethyl)pyrrolidine-2-carboxamide] | A (“A” indicates maximum degradation ≥75%)
5 |  | > 1000 nM |  | Cc1ncsc1-c1ccc([C@H](C)NC(=O)[C@@H]2C[C@@H](O)CN2C(=O)[C@@H](c2cc(OCCCN3CC(c4cc5nnc(-c6ccccc6O)cc5[nH]4)C3)no2)C(C)C)cc1 [Compound 3, (2S,4R)-4-hydroxy-1-((R)-2-(3-(3-(3-(3-(2-hydroxyphenyl)-5H-pyrrolo[3,2-c]pyridazin-6-yl)azetidin-1-yl)propoxy)isoxazol-5-yl)-3-methylbutanoyl)-N-((S)-1-(4-(4-methylthiazol-5-yl)phenyl)ethyl)pyrrolidine-2-carboxamide, formic acid] | B (“B” indicates maximum degradation ≥50%)
6 | > 50% | > 10 nM | > 100 nM | Cc1ncsc1-c1ccc([C@H](C)NC(=O)[C@@H]2C[C@@H](O)CN2C(=O)[C@@H](c2cc(N3CCC(CN4CC(c5cc6nnc(-c7ccccc7O)cc6[nH]5)C4)CC3)no2)C(C)C)cc1 [Compound 4, (2S,4R)-4-hydroxy-1-((R)-2-(3-(4-((3-(3-(2-hydroxyphenyl)-5H-pyrrolo[3,2-c]pyridazin-6-yl)azetidin-1-yl)methyl)piperidin-1-yl)isoxazol-5-yl)-3-methylbutanoyl)-N-((S)-1-(4-(4-methylthiazol-5-yl)phenyl)ethyl)pyrrolidine-2-carboxamide] | A (“A” indicates maximum degradation ≥75%)
7 | > 75% | < 10 nM | > 100 nM | Cc1ncsc1-c1ccc([C@H](C)NC(=O)[C@@H]2C[C@@H](O)CN2C(=O)[C@@H](c2cc(N3CCC(N4CC(c5cc6nnc(-c7ccccc7O)cc6[nH]5)C4)CC3)no2)C(C)C)cc1 [Compound 5, (2S,4R)-4-hydroxy-1-((R)-2-(3-(4-(3-(3-(2-hydroxyphenyl)-5H-pyrrolo[3,2-c]pyridazin-6-yl)azetidin-1-yl)piperidin-1-yl)isoxazol-5-yl)-3-methylbutanoyl)-N-((S)-1-(4-(4-methylthiazol-5-yl)phenyl)ethyl)pyrrolidine-2-carboxamide] | A (“A” indicates maximum degradation ≥75%)
8 | > 75% | > 10 nM | > 100 nM | Cc1ncsc1-c1ccc([C@H](C)NC(=O)[C@@H]2C[C@@H](O)CN2C(=O)[C@@H](c2cc(N3CCC(C(=O)N4CC(c5cc6nnc(-c7ccccc7O)cc6[nH]5)C4)CC3)no2)C(C)C)cc1 [Compound 6] | A (“A” indicates maximum degradation ≥75%)
9 | < 50% | > 100 nM |  | Cc1ncsc1-c1ccc([C@H](C)NC(=O)[C@@H]2C[C@@H](O)CN2C(=O)[C@@H](c2cc(OCC(=O)N3CC(c4cc5nnc(-c6ccccc6O)cc5[nH]4)C3)no2)C(C)C)cc1 [Compound 7, (2S,4R)-4-hydroxy-1-((R)-2-(3-(2-(3-(3-(2-hydroxyphenyl)-5H-pyrrolo[3,2-c]pyridazin-6-yl)azetidin-1-yl)-2-oxoethoxy)isoxazol-5-yl)-3-methylbutanoyl)-N-((S)-1-(4-(4-methylthiazol-5-yl)phenyl)ethyl)pyrrolidine-2-carboxamide] | A (“A” indicates maximum degradation ≥75%)
10 | > 75% | < 10 nM | > 10 nM | Cc1ncsc1-c1ccc([C@H](C)NC(=O)[C@@H]2C[C@@H](O)CN2C(=O)[C@@H](c2cc(OCCN3CC(c4cc5nnc(-c6ccccc6O)cc5n4C)C3)no2)C(C)C)cc1 [Compound 8, (2S,4R)-4-hydroxy-1-((R)-2-(3-(2-(3-(3-(2-hydroxyphenyl)-5-methyl-5H-pyrrolo[3,2-c]pyridazin-6-yl)azetidin-1-yl)ethoxy)isoxazol-5-yl)-3-methylbutanoyl)-N—((S)-1-(4-(4-methylthiazol-5-yl)phenyl)ethyl) pyrrolidine-2-carboxamide] | A (“A” indicates maximum degradation ≥75%)
11 | < 50% | > 10 nM |  | Cc1ncsc1-c1ccc([C@H](C)NC(=O)[C@@H]2C[C@@H](O)CN2C(=O)[C@@H](c2cc(N3CCC(CN4CC(c5cc6nnc(-c7ccccc7O)cc6n5C)C4)CC3)no2)C(C)C)cc1 [Compound 9, (2S,4R)-4-hydroxy-1-((R)-2-(3-(4-((3-(3-(2-hydroxyphenyl)-5-methyl-5H-pyrrolo[3,2-c]pyridazin-6-yl)azetidin-1-yl)methyl)piperidin-1-yl)isoxazol-5-yl)-3-methylbutanoyl)-N-((S)-1-(4-(4-methylthiazol-5-yl)phenyl)ethyl)pyrrolidine-2-carboxamide] | A (“A” indicates maximum degradation ≥75%)
12 | > 50% | > 10 nM | > 1000 nM | Cc1ncsc1-c1ccc([C@H](C)NC(=O)[C@@H]2C[C@@H](O)CN2C(=O)[C@@H](c2cc(N(C)CCN3CC(c4cc5nnc(-c6ccccc6O)cc5n4C)C3)no2)C(C)C)cc1 [Compound 10, (2S,4R)-4-hydroxy-1-((R)-2-(3-((2-(3-(3-(2-hydroxyphenyl)-5-methyl-5H-pyrrolo[3,2-c]pyridazin-6-yl)azetidin-1-yl)ethyl)(methyl)amino)isoxazol-5-yl)-3-methylbutanoyl)-N-((S)-1-(4-(4-methylthiazol-5-yl)phenyl)ethyl)pyrrolidine-2-carboxamide] | A (“A” indicates maximum degradation ≥75%)
13 | < 50% | > 10 nM |  | Cc1ncsc1-c1ccc([C@H](C)NC(=O)[C@@H]2C[C@@H](O)CN2C(=O)[C@@H](c2cc(OCCCN3CC(c4cc5nnc(-c6ccccc6O)cc5n4C)C3)no2)C(C)C)cc1 [Compound 11, (2S,4R)-4-hydroxy-1-((R)-2-(3-(3-(3-(3-(2-hydroxyphenyl)-5-methyl-5H-pyrrolo[3,2-c]pyridazin-6-yl)azetidin-1-yl)propoxy)isoxazol-5-yl)-3-methylbutanoyl)-N-((S)-1-(4-(4-methylthiazol-5-yl)phenyl)ethyl)pyrrolidine-2-carboxamide] | A (“A” indicates maximum degradation ≥75%)
